Test results as given in US8987467B2, “Substituted pyrazole azetidines as sphingosine receptor modulators” (Allergan, Inc., priority 2013, dated 2015).

Each compound was assayed against T1, human S1P1 receptor (Homo sapiens, UniProt P21453) (assay: GTP γ35S binding assay for S1P1 activity). Details: membranes of cells stably expressing the S1P1 receptor; test concentrations 0.08 to 5,000 nM; 30 min at 25° C.; read-out: S1P1 EC50 (Activity potency: S1P1 receptor from GTP γ35S).
T1 construct: expressed in transfected cells; membranes used
Assay type: biochemical
Experimental: Compounds were tested for S1P1 activity using the GTP γ^35S binding assay. These compounds may be assessed for their ability to activate or block activation of the human S1P1 receptor in cells stably expressing the S1P1 receptor.
GTP γ^35S binding was measured in the medium containing (mM) HEPES 25, pH 7.4, MgCl2 10, NaCl 100, dithiothreitol 0.5, digitonin 0.003%, 0.2 nM GTP γ^355, and 5 μg membrane protein in a volume of 150 μl. Test compounds were included in the concentration range from 0.08 to 5,000 nM unless indicated otherwise. Membranes were incubated with 100 μM 5′-adenylylimidodiphosphate for 30 min, and subsequently with 10 μM GDP for 10 min on ice. Drug solutions and membrane were mixed, and then reactions were initiated by adding GTP γ^355 and continued for 30 min at 25° C. Reaction mixtures were filtered over Whatman GF/B filters under vacuum, and washed three times with 3 mL of ice-cold buffer (HEPES 25, pH 7.4, MgCl2 10 and NaCl 100). Filters were dried and mixed with scintillant, and counted for ^35S activity using a β-counter. Agonist-induced GTP γ^355 binding was obtained by subtracting that in the absence of agonist. Binding data were analyzed using a non-linear regression method. In case of antagonist assay, the reaction mixture contained 10 nM S1P in the presence of test antagonist at concentrations ranging from 0.08 to 5000 nM.

T1 sequence (P21453 whole entry): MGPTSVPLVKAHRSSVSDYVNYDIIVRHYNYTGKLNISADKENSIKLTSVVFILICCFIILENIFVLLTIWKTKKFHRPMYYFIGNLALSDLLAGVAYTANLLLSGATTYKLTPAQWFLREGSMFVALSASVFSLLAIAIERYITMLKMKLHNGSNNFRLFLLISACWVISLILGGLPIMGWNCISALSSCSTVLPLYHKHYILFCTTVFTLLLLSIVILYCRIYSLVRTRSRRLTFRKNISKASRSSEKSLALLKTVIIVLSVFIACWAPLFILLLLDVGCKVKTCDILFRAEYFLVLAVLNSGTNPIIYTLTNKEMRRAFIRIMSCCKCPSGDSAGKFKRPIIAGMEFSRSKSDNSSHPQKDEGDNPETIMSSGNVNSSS

Row | EC50 [nM] | SMILES
1 | 24 | CCc1cc(-c2noc(C3=NN(CC)C(c4ccccc4)C3)n2)ccc1CN1CC(C(=O)O)C1 (stereo not shown) [Compound 5, 1-{2-ethyl-4-[5-(1-ethyl-5-phenyl-4,5-dihydro-1H-pyrazol-3-yl)-1,2,4-oxadiazol-3-yl]benzyl}azetidine-3-carboxylic acid]
2 | 252 | CCN1N=C(c2nc(-c3ccc(CN4CC(C(=O)O)C4)cc3)no2)CC1c1ccccc1 (stereo not shown) [Compound 1, 1-{4-[5-(1-ethyl-5-phenyl-4,5-dihydro-1H-pyrazol-3-yl)-1,2,4-oxadiazol-3-yl]benzyl}azetidine-3-carboxylic acid]
3 | 75 | CCCN1N=C(c2nc(-c3ccc(CN4CC(C(=O)O)C4)cc3)no2)CC1c1ccccc1 (stereo not shown) [Compound 6, 1-{4-[5-(5-phenyl-1-propyl-4,5-dihydro-1H-pyrazol-3-yl)-1,2,4-oxadiazol-3-yl]benzyl}azetidine-3-carboxylic acid]
4 | 51 | CCN1N=C(c2nc(-c3cc(F)c(CN4CC(C(=O)O)C4)c(F)c3)no2)CC1c1ccccc1 (stereo not shown) [Compound 4, 1-{4-[5-(1-ethyl-5-phenyl-4,5-dihydro-1H-pyrazol-3-yl)-1,2,4-oxadiazol-3-yl]-2,6-difluorobenzyl}azetidine-3-carboxylic acid]
